Assay results taken from patent US6835731B2, “Chemokine receptor binding heterocyclic compounds” (AnorMED, Inc., priority 2000, dated 2004).

Assays:
Format in all cases: cell-based
[1] = tested on: SDF-1α induced Ca flux in SUP-T1 cells; experiment: Inhibition of chemokine (SDF-1α) induced Ca flux measured on a FLIPR; settings: Homo sapiens, at 20 μg/mL
Procedure: Inhibition of Chemokine Induced Ca Flux Measured on a FLIPR (Molecular Devices) Loading dye: Fluo-3, AM (Molecular Probes F-1241) is dissolved in anhydrous DMSO and stored frozen in aliquots. To increase the solubility of the dye in the loading medium, 10% (w/v) pluronic acid (Molecular Probes F-127) is added to the Fluo-3 stock solution immediately before use. buffer+0.2% BSA, pH 7.4. HBSS 10× [(w/o phenol red and sodium bicarbonate (Gibco 14 065-049)]; Hepes buffer 1M (Gibco 15 630-056), BSA (Sigma A3675). The flux buffer is vacuum-filtered and stored refrigerated for a maximum of 5 days. Before use in the experiment, the buffer is warmed at 37° C. in a waterbath. The test compounds were diluted in flux buffer at the desired concentration and added to 4 wells of a black microplate (4 parallel measurements per compound). The following control wells were used: 100% response control (no inhibition), flux buffer was added; 100% inhibition control: chemokine was added at 5-times the concentration required to induce a Ca flux. The chemokines are diluted in flux buffer to concentrations that are 4-fold higher than the desired concentrations required for stimulation of the cells (i.e. 2.5 nM for SDF-1α and 0.6 nM for RANTES). The chemokines were added to untreated 96-well Sero well compound plates (International Medical, Sterilin code 611F96). In the negative control well's (baseline monitoring), flux buffer is added instead of chemokine. As a positive control to check for dye loading efficiency, 20 μM digitonin (final concentration) was also included. The agonist plate was incubated in the FLIPR (37° C.) for 15-30 min. Cell Loading Protocol for Measuring Inhibition of SDF-1α Induced Ca Flux in SUP-T1 Cells. SUP-T1 cells were centrifuged at room temperature (RT) and re-suspended in loading medium (RPMI-1640 containing 2% FBS and 4 μM Fluo-3, AM). The cells were incubate at room temperature for 45 min. then washed twice in flux buffer then incubated in flux buffer at room temperature for 10 min. The cells were centrifuged and re-suspended in flux buffer at a density of 3×10^6 cells per mL. A 100 μL aliquot of the cell suspension (3×10^5 cells) was added to each well of a black microplate (Costar 3603), which already contains 50 μL of a solution of the test compound (at concentrations that are 3-fold higher than the desired final compound concentrations). The microplate is then gently centrifuged at room temperature. Homogeneous spreading of the cells on the bottom of the microplate wells was then confirmed with a microscope and the microplate was incubated in the FLIPR (37° C.) for 10 min. prior to testing. The FLIPR settings (camera exposure time and laser power) are adjusted to obtain initial fluorescence values between 8,000 and 10,000 units. After monitoring a 20 second-baseline, the agonist (chemokine) (50 μL) is added by automatic pipettor with black pipette tips. Fluorescence is measured simultaneously in all wells of the microplate every 2 seconds (first 2 min) and thereafter every 6 seconds (additional 2 min). The average ca-flux measured in each set of 4 identical wells (one test compound) was calculated by the FLIPR software. The compounds of the current invention are tested for inhibition of SDF-1α induced Ca flux in SUP-T1 cells using the method described above.

[2] = tested on: HIV-1 NL4.3 (or IIIB, CXCR4 using); experiment: Inhibition of HIV-1 (NL4.3) replication in MT-4 cells; settings: Human immunodeficiency virus 1, IIIB, MT4, 120 h, MTT viability after 5 days
Procedure: Assay for Inhibition of HIV-1 (NL4.3) Replication in MT-4 Cells. Inhibition of HIV-1 NL4.3 (or IIIB, CXCR4 using) replication assays were performed as previously described (Bridger et al. J. Med. Chem. 1999, 42, 3971-3981; De […] et al. Proc. Natl. Acad. Sci, 1992, 89, 5286-5290; De […] et al. Antimicrob. Agents Chemother. 1994, 38, 668-674; Bridger et al. J. Med. Chem. 1995, 38, 366-378; Schols et al. J. Exp. Med., 1997, 186, 1383-1388). Anti-HIV activity and cytotoxicity measurements were carried out in parallel. They were based on the viability of MT-4 cells that had been infected with HIV in the presence of various concentrations of the test compounds. After the MT-4 cells were allowed to proliferate for 5 days, the number of viable cells was quantified by a tetrazolium-based colorimetric 3-(4,5-dimethylthiazol-2-yl)-2,5-diphenyltetrazolium bromide (MTT) procedure in 96-well microtrays. In all of these assays, viral input (viral multiplicity of infection, MOI) was 0.01, or 100 times the 50% cell culture infective dose (CCID50). The EC50 was defined as the concentration required to protect 50% of the virus-infected cells against viral cytopathicity. When compounds of the current invention are tested for inhibition of HIV-1 NL4.3 or IIIB replication in MT-4 cells, all show inhibition.

HIV-1 BaL (CCR5 using) = experiment: Inhibition of HIV-1 (BaL) replication in PBMC's; settings: Human immunodeficiency virus 1, BAL, PHA-stimulated PBMC's, viral p24 antigen expression
Procedure: Assay for Inhibition of HIV-1 (BaL) Replication in PBMC's. When compounds of the current invention are tested for inhibition of HIV-1 BaL (CCR5 using) replication in PHA-stimulated PBMC's (peripheral blood mononuclear cells) using viral p24 antigen expression (De […] et al. Antimicrob. Agents Chemother. 1994, 38, 668-674; Schols et al. J. Exp. Med., 1997, 186, 1383-1388), all show inhibition.

Compound | inhibition at 20 µg/mL [1] | EC50 [2] | EC50 (HIV-1 BaL (CCR5 using))
O=S(=O)(NCc1ccccn1)c1ccc(CN(Cc2nc3ccccc3[nH]2)C2CCCc3cccnc32)cc1 (centres unmarked) [Example 11, 4-{[(1 H-Benzimidazol-2-ylmethyl)-(5,6,7,8-tetrahydro-quinolin-8-yl)-amino]-methyl}-N-pyridin-2-ylmethyl-benzenesulfonamide] | > 20% | < 20 µg/mL | < 20 µg/mL
O=C(NCc1ccc(CN(Cc2nc3ccccc3[nH]2)C2CCCc3cccnc32)cc1)c1ccccn1 (centres unmarked) [Example 17, Pyridine-2-carboxylic Acid 4-{[(1 H-benzimidazol-2-ylmethyl)-(5,6,7,8-tetrahydro-quinolin-8-yl)-amino]-methyl}-benzylamide] | > 20% | < 20 µg/mL | < 20 µg/mL
O=C(NCc1ccccn1)c1ccc(CN(Cc2nc3ccccc3[nH]2)C2CCCc3cccnc32)cc1 (centres unmarked) [Example 4, 4-{[(1 H-Benzimidazol-2-ylmethyl)-(5,6,7,8-tetrahydro-quinolin-8-yl)-amino]-methyl}-N-pyridin-2-ylmethyl-benzamide] | > 20% | < 20 µg/mL | < 20 µg/mL
O=S(=O)(Nc1ccc(CN(Cc2nc3ccccc3[nH]2)C2CCCc3cccnc32)cc1)c1ccccn1 (centres unmarked) [Example 53, Pyridine-2-sulfonic acid (4-{[(1H-benzoimidazol-2-ylmethyl)-(5,6,7,8-tetrahydro-quinolin-8-yl)-amino]-methyl}-phenyl)-amide] | – | < 20 µg/mL | < 20 µg/mL
O=C(Nc1ccccn1)c1ccc(CN(Cc2nc3ccccc3[nH]2)C2CCCc3cccnc32)cc1 (centres unmarked) [Example 2, 4-{[(1 H-Benzimidazol-2-ylmethyl)-(5,6,7,8-tetrahydroquinolin-8-yl)amino]-methyl}-N-pyridin-2-yl-benzamide] | > 20% | < 20 µg/mL | < 20 µg/mL
O=C(NCc1ccc(CNC2CCCc3cccnc32)cc1)c1ccccn1 (centres unmarked) [Example 16, Pyridine-2-carboxylic acid 4-[(5,6,7,8-tetrahydro-quinolin-8-ylamino)-methyl]-benzeylamide] | – | – | < 20 µg/mL
O=S(=O)(NCc1ccc(CN(Cc2nc3ccccc3[nH]2)C2CCCc3cccnc32)cc1)c1ccccn1 (centres unmarked) [Example 48, Pyridine-2-sulfonic Acid 4-{[(1 H-benzoimidazol-2-ylmethyl)-(5,6,7,8-tetrahydro-quinolin-8-yl)-amino]-methyl}-benzylamide] | > 20% | < 20 µg/mL | < 20 µg/mL
O=C(Nc1ccc(CN(Cc2nc3ccccc3[nH]2)C2CCCc3cccnc32)cc1)c1ccccn1 (centres unmarked) [Example 45, pyridine-2-carboxylic acid (4-{[(1 H-benzoimidazol-2-ylmethyl)-(5,6,7,8-tetrahydro-quinolin-8-yl)-amino]-methyl}-phenyl)-amide] | > 20% | < 20 µg/mL | –
